ChEMBL document CHEMBL1201862, “PubChem BioAssay data set” (2004)
The source made the active and inactive calls.

Assays:
Cytochrome P450 2C19 = Cytochrome P450 2C19 (Homo sapiens, UniProt P33261); test: Cytochrome panel assay with activity outcomes. Panel member name: p450-cyp2c19 Compounds with AC50 equal or less than 10 uM are considered active; assay type: functional
[1] = Luminescence Cell-Based Dose Response HTS to Identify Inhibitors of 5'UTR Stem-Loop Driven Prion Protein mRNA Translation in H4 Neuroglioblastoma Cells. [Related pubchem assays: 1827 (Project Summary), 1813 (Primary HTS)]; assay type: functional
[2] = inhibitors of SNCA 5'UTR-driven reporter translation, confirmation, H4 neuroglioma cells, luminescence (AID 1988); assay type: functional, cell-based
[3] = inhibitors of firefly luciferase expression or activity, dose response, H4 neuroglioma cells, luminescence (AID 1990); assay type: functional, cell-based
Cytochrome P450 3A4 = Cytochrome P450 3A4 (Homo sapiens, UniProt P08684);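 also: CYP3A4 tested as one member of a cytochrome P450 panel screen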
Cytochrome P450 3A4, sequence (P08684 whole entry): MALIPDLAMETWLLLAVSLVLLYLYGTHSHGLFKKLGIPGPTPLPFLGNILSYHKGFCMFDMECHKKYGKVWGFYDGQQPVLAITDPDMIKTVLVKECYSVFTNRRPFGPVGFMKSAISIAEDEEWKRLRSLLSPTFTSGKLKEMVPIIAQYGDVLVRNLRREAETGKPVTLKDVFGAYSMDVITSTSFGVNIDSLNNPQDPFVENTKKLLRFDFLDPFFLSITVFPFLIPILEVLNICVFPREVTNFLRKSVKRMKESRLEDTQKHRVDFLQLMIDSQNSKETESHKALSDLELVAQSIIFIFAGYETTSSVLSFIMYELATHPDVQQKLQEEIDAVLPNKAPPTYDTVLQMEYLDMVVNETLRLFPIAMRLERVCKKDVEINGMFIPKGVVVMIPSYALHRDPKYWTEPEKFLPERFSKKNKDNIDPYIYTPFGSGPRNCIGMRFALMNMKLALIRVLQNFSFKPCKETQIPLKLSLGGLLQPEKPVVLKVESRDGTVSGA

Cytochrome P450 2C9 = Cytochrome P450 2C9 (Homo sapiens, UniProt P11712)
Cytochrome P450 2C9, sequence (P11712 whole entry): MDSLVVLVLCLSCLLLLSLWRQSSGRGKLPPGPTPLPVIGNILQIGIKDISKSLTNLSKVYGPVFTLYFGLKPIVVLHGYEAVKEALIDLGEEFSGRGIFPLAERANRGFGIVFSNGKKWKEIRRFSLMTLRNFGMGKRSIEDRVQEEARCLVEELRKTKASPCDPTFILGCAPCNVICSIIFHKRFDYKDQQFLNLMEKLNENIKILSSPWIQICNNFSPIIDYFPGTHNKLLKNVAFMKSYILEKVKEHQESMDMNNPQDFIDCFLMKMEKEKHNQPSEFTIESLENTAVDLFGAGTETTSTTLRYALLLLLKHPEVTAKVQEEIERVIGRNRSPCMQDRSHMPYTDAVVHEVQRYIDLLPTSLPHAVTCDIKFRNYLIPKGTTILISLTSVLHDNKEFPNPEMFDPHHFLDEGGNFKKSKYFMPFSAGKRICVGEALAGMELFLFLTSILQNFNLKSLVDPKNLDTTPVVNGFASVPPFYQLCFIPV

[4] = target: T1, Corticotropin-releasing factor receptor 2/Corticotropin-releasing factor-binding protein (Homo sapiens, UniProt P24387+Q13324); test: activators of CRF receptor 2 with binding protein – uHTS hits, confirmation (AID 602473); assay type: functional; conditions: read-out: EC50_Mean
T1 sequence (Q13324 whole entry): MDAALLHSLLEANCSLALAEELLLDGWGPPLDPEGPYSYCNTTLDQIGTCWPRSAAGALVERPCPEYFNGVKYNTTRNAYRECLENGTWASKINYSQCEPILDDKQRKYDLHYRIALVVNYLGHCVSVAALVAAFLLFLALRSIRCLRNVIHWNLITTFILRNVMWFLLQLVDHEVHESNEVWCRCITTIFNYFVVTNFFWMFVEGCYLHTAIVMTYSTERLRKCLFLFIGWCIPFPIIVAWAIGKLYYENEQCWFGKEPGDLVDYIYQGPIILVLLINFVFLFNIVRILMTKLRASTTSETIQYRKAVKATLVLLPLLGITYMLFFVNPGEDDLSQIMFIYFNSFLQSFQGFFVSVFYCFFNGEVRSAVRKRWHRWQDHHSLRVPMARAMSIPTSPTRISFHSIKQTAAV
T1 sequence (P24387 whole entry): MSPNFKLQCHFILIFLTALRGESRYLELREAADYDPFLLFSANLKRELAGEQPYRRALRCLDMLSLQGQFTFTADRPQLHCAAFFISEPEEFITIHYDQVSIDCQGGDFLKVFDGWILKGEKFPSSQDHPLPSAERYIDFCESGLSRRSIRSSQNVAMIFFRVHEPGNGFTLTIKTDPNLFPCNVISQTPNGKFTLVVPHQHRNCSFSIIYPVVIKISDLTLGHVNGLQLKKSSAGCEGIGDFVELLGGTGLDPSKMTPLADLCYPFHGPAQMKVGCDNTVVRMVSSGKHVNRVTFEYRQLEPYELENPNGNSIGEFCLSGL

Cytochrome P450 2C19, sequence (P33261 whole entry): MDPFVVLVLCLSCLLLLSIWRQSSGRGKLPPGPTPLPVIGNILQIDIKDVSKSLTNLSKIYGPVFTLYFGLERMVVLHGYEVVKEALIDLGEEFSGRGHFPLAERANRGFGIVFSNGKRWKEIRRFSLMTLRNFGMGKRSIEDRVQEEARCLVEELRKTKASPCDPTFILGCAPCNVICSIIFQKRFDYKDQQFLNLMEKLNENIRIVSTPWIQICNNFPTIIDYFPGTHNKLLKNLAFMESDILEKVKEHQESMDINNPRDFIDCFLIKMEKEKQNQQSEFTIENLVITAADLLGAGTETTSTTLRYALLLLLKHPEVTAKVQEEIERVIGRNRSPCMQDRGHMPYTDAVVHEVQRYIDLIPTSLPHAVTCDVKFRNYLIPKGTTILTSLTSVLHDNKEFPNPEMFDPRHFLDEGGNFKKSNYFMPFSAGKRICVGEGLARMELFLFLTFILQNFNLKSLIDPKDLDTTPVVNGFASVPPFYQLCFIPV

Which AC50 (Cytochrome P450 2C19; read-out: AC50) does the source give for `COc1ccc([N+](=O)[O-])cc1COc1ccc2c(-c3ccccc3)cc(=O)oc2c1` here?
Its AC50 is 3.55 µM (inconclusive).

For `COc1ccc(NC(=O)c2cc(S(=O)(=O)N3CCCCC3)c[nH]2)cc1Cl`, which EC50 [1] is on record?
Its EC50 is 18.4 µM (active).

And the EC50 [2]?
Its EC50 is > 120 µM (not active).

And the EC50 [3]?
Its EC50 is 23.7 µM (active).

With `COC(=O)c1c(C)oc2ccc(N(C(=O)c3ccncc3)S(=O)(=O)c3ccc(C)cc3)cc12` as the compound, how does the EC50 [1] read?
Its EC50 is 10.9 µM (active).

And the EC50 [2]?
Its EC50 is 8.07 µM (active).

What about the EC50 [3] of the same compound?
Its EC50 is > 120 µM (not active).

What does the source list for `CN(C)CCNC(=O)C(=O)NCC1OCCCN1S(=O)(=O)c1cccs1` (configuration not stated)?
EC50 [1]: > 120 µM (not active); EC50 [2]: > 120 µM (not active); EC50 [3]: > 120 µM (not active)

Which results are given for `CC(=O)Nc1c(C(=O)N2CCOCC2)cnn1-c1ccc(C)c(C)c1`?
AC50 (Cytochrome P450 2C19): inconclusive; AC50 (Cytochrome P450 3A4): 3.98 µM (inconclusive)

What does the source list for `Cc1ccccc1NC(=O)NC1(C(=O)N2CCOCC2)CCCCC1`?
EC50 [1]: > 120 µM (not active); EC50 [2]: > 120 µM (not active); EC50 [3]: > 120 µM (not active)

With `COc1ccc(CNC(=O)[C@H]2C[C@@H]2[C@H](NP(=O)(c2ccccc2)c2ccccc2)c2ccccc2)cc1OC` as the compound, how does the AC50 (Cytochrome P450 2C9) read?
Its AC50 is 25.1 µM (inconclusive).

Which AC50 (Cytochrome P450 2C9) does the source give for `CCCCCC(=O)Nc1cc2nc(O)cc(COC)c2cc1C` here?
Its AC50 is 10 µM (inconclusive).

For `Cc1ccc(NC(=O)CN2CCC(NC(=O)c3cccc(F)c3)CC2)cc1C`, which EC50 [1] is on record?
The EC50 was 21.6 µM (active).

And the EC50 [2]?
Its EC50 is > 120 µM (not active).

And the EC50 [3]?
The EC50 was > 120 µM (not active).

With `CCc1ccc(NC(=O)C(CC)c2ccccc2)cc1` (configuration not stated) as the compound, how does the EC50 [4] read?
The EC50 was 10.4 µM (active).

For `O=C(Nc1cc(C(F)(F)F)ccc1Cl)C(Sc1cccc[n+]1[O-])c1ccccc1` (configuration not stated), which EC50 [4] is on record?
The EC50 was > 53 µM (inactive).

With `Cc1ccc(SCN2CCCCC2)cc1.O=C(Cl)c1ccc([N+](=O)[O-])cc1` as the compound, how does the AC50 (Cytochrome P450 2C19; read-out: AC50) read?
The AC50 was 2.51 µM (inconclusive).

With `CCCCC#Cc1nc(N)c2ncn([C@@H]3O[C@@H](C(=O)NCC)[C@H](O)[C@@H]3O)c2n1` as the compound, how does the AC50 (Cytochrome P450 2C9) read?
Its AC50 is 25.1 µM (inconclusive).

And the AC50 (Cytochrome P450 2C19; read-out: AC50)?
Its AC50 is 39.8 µM (inconclusive).

What about the AC50 (Cytochrome P450 3A4) of the same compound?
Its AC50 is 15.8 µM (inconclusive).

With `Oc1c(CN2CCOCC2)ccc(CN2CCOCC2)c1O` as the compound, how does the AC50 (Cytochrome P450 2C9) read?
The AC50 was 7.94 µM (inconclusive).

For `CCOc1ccc(C(C)NC(=S)NCc2ccc(Cl)cc2)cc1` (configuration not stated), which EC50 [4] is on record?
The EC50 was 14.6 µM (active).

With `COc1ccc(-n2c(SCC(=O)Nc3ccccc3)nnc2-c2ccoc2C)cc1` as the compound, how does the EC50 [1] read?
Its EC50 is 29.7 µM (active).

What about the EC50 [2] of the same compound?
The EC50 was 15.9 µM (active).

And the EC50 [3]?
Its EC50 is > 120 µM (not active).

For `CNc1ncncc1-c1ccccc1CN(C)C`, which AC50 (Cytochrome P450 2C19) is on record?
Its AC50 is “inconclusive”.

With `COC(=O)[C@@H](NC(=O)Nc1ccc(C(C)=O)cc1)C(C)C` as the compound, how does the AC50 (Cytochrome P450 2C9) read?
Its AC50 is 3.55 µM (inconclusive).

With `Cc1cc(C)c(OCC(=O)Nc2ccccc2N2CCOCC2)c(C)c1` as the compound, how does the EC50 [4] read?
Its EC50 is > 53 µM (inactive).

Which AC50 (Cytochrome P450 2C9) does the source give for `c1csc(CNc2ncncc2-c2ccoc2)c1` here?
Its AC50 is 0.794 µM (inconclusive).

For `Cc1cc2cccc(C)c2nc1SCC(=O)N(C)c1nc(-c2ccccc2)cs1`, which AC50 (Cytochrome P450 2C9) is on record?
Its AC50 is 2.82 µM (inconclusive).

With `CCOc1cc2[nH]c(=O)n(CCC(=O)NCc3ccc(OC)cc3)c(=O)c2cc1OCC` as the compound, how does the AC50 (Cytochrome P450 2C9) read?
Its AC50 is 2 µM (inconclusive).

For `COc1cccc(NC(=O)Cc2c(C(=O)O)[nH]c3ccccc23)c1`, which AC50 (Cytochrome P450 2C9) is on record?
The AC50 was 22.4 µM (inconclusive).

What about the AC50 (Cytochrome P450 3A4) of the same compound?
The AC50 was 15.8 µM (inconclusive).

With `O=c1cnc2cnc(Nc3ccccc3)nc2n1C1CC1` as the compound, how does the AC50 (Cytochrome P450 2C9) read?
The AC50 was 31.6 µM (inconclusive).

What about the AC50 (Cytochrome P450 2C19; read-out: AC50) of the same compound?
Its AC50 is 20 µM (inconclusive).

What about the AC50 (Cytochrome P450 3A4) of the same compound?
Its AC50 is 25.1 µM (inconclusive).

Which AC50 (Cytochrome P450 2C19; read-out: AC50) does the source give for `COC(=O)N1CCC2(CCCN(Cc3ccc(C#N)cc3)C2)CC1` here?
Its AC50 is 7.94 µM (inconclusive).

And the AC50 (Cytochrome P450 3A4)?
The AC50 was 15.8 µM (inconclusive).

With `CCCNS(=O)(=O)c1ccc(Oc2ncc(C(F)(F)F)cc2Cl)cc1` as the compound, how does the EC50 [4] read?
The EC50 was > 53 µM (inactive).

What does the source list for `O=C1c2ccccc2C(=O)N1CC1CCCO1` (configuration not stated)?
AC50 (Cytochrome P450 2C9): 0.398 µM (inconclusive); AC50 (Cytochrome P450 2C19; read-out: AC50): 0.355 µM (inconclusive)

With `CC(CNC(=O)c1ccc(NC2=NC3CS(=O)(=O)CC3S2)cc1)c1ccccc1` (configuration not stated) as the compound, how does the EC50 [4] read?
Its EC50 is > 53 µM (inactive).

For `O=C(NCC(c1ccco1)N1CCCC1)c1cc2cc(Cl)ccc2o1` (configuration not stated), which EC50 [4] is on record?
Its EC50 is > 53 µM (inactive).

Which EC50 [1] does the source give for `C/C(=N\OCc1cccc(C(=O)O)c1)c1ccc(Cl)cc1` here?
The EC50 was 0.254 µM (active).

And the EC50 [2]?
Its EC50 is 4.77 µM (active).

What about the EC50 [3] of the same compound?
The EC50 was 7.12 µM (inconclusive).
